From patent US8637481B2, “Sensitizing agents for cancer therapy, methods of use and methods for the identification thereof” (University Health Network, priority 2009, dated 2014)

Experiments:
FaDu cells [1] = assay: Cell viability assay (MTS); assay type: cell-based, human; conditions: IR 4 Gy, 96 h post-IR, siRNA 48 h transfection, ALA 250-1000 μM 4 h
From the text: The CeliTiter 96 AQueous One Solution Cell Proliferation Assay (3-(4,5-dimethylthiazol-2-yl)-5-(3-carboxymethoxyphenyl)-2-(4-sulfophenyl)-2H-tetrazolium, inner salt MTS (Promega, Madison, Wis.) was used to detect cell viability according to the manufacturer's specifications.

FaDu cells [2] = assay: Apoptotic fraction by flow cytometry post-IR; assay type: cell-based, human; conditions: deferoxamine 5 μM pre-treatment 24 h before IR 4 Gy, 72 h post-IR
Procedure: Flow cytometric analyses were performed on a FACSCalibur Flow Cytometer (BD Biosciences, San Jose, Calif.), equipped with FlowJo software (Tree Star, Ashland, Oreg.). Cell cycle distributions, caspase activation, and mitochondrial membrane potentials were measured as previously described. Intracellular ROS levels were quantified using the non-specific 5-(and 6-)chloromethyl-2′,7′-dichlorodihydrofluorescein diacetate (CM-H2DCFDA) dye, and the superoxide-selective dihydroethidium (DE) dye as instructed by the manufacturer (Invitrogen).
Transfected cells were immediately exposed to a continuous flow of humidified 0.2% O2 with 5% CO2 and balanced N2 (Praxair, Ontario, Canada) in an In Vivo2 400 Hypoxia Chamber (Ruskinn Technology, Pencoed, UK). An OxyLite 4000 oxygen-sensing probe (Oxford Optronix, Oxford, UK) was used to verify target O2 levels.

Row | Molecule | cytotoxicity plus IR (cell viability, MTS) (FaDu cells [1]) | siUROD-plus-IR-induced apoptosis (FaDu cells [2])
1 | Cl.NCC(=O)CCC(=O)O [ALA, δ-aminolevulinic acid hydrochloride] | negligible effects | –
2 | deferoxamine mesylate salt | – | significant suppression
